Consider ten molecules from PubChem BioAssay AID272 (DTP/NCI, 2004).

Inconclusive results are not listed.

The test system of this assay is Lewis lung carcinoma i.m., BDF1 mice, T/C %. The experiment in a line: NCI In Vivo Anticancer Drug Screen. Data for tumor model Lewis Lung Carcinoma (intramuscular) in B6D2F1 (BDF1) mice. A digest of the protocol:
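Value is the ratio of a treated-group measurement (T) to the matching vehicle-control measurement (C), using either survival or tumour size in mice bearing transplanted tumours.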

Setting [1] is: endpoint: mean tumor weight (est.), dose: 6.25 mg/kg/injection, schedule: Q01DX011 (ip), vehicle: saline with Tween-80, higher = larger tumour.
Where [2] appears, read: endpoint: mean tumor weight (est.), dose: 12.5 mg/kg/injection, schedule: Q01DX011 (ip), vehicle: saline with Tween-80, higher = larger tumour.
The mark [3] stands for this setting: endpoint: mean tumor weight (est.), dose: 25.0 mg/kg/injection, schedule: Q01DX011 (ip), vehicle: saline with Tween-80, higher = larger tumour.
Where [4] appears, read: endpoint: median survival time, dose: 6.25 mg/kg/injection, schedule: Q01DX011 (ip), vehicle: saline with Tween-80, higher = longer survival.
[5] abbreviates: endpoint: median survival time, dose: 12.5 mg/kg/injection, schedule: Q01DX011 (ip), vehicle: saline with Tween-80, higher = longer survival.
The mark [6] stands for this setting: endpoint: median survival time, dose: 25.0 mg/kg/injection, schedule: Q01DX011 (ip), vehicle: saline with Tween-80, higher = longer survival.

For the molecule `O=NN(CCCl)C(=O)NCC1CCC(CNC(=O)N(CCCl)N=O)CC1` (configuration not stated), the T/C runs as follows: (endpoint: median survival time, dose: 65.0 mg/kg/injection, schedule: Q07DX003 (ip), vehicle: Klucel (hydroxypropylcellulose) (HPC), higher = longer survival) 116 % of control; (endpoint: median survival time, dose: 108.0 mg/kg/injection, schedule: Q07DX003 (ip), vehicle: Klucel (hydroxypropylcellulose) (HPC), higher = longer survival) 106 % of control; (endpoint: median survival time, dose: 180.0 mg/kg/injection, schedule: Q07DX003 (ip), vehicle: Klucel (hydroxypropylcellulose) (HPC), higher = longer survival) 114 % of control; (endpoint: median survival time, dose: 300.0 mg/kg/injection, schedule: Q07DX003 (ip), vehicle: Klucel (hydroxypropylcellulose) (HPC), higher = longer survival) 106 % of control; (endpoint: median survival time, dose: 500.0 mg/kg/injection, schedule: Q07DX003 (ip), vehicle: Klucel (hydroxypropylcellulose) (HPC), higher = longer survival) 114 % of control.

As to `COC1N(C2CC(O)C(CO)O2)C(=O)NC(=O)C1(F)Br` (configuration not stated), the T/C was 87 % of control (endpoint: mean tumor weight (est.), dose: 5.0 mg/kg/injection, schedule: Q01DX011 (ip), vehicle: saline, higher = larger tumour); 29 % of control (endpoint: mean tumor weight (est.), dose: 10.0 mg/kg/injection, schedule: Q01DX011 (ip), vehicle: saline, higher = larger tumour); 7 % of control (endpoint: mean tumor weight (est.), dose: 20.0 mg/kg/injection, schedule: Q01DX011 (ip), vehicle: saline, higher = larger tumour); 103 % of control (endpoint: median survival time, dose: 5.0 mg/kg/injection, schedule: Q01DX011 (ip), vehicle: saline, higher = longer survival).

In the case of `Cc1c(O)ccc(=O)n1O`, the T/C was 99 % of control (endpoint: mean tumor weight (est.), dose: 27.5 mg/kg/injection, schedule: Q01DX011 (ip), vehicle: saline, higher = larger tumour); 121 % of control (endpoint: mean tumor weight (est.), dose: 55.0 mg/kg/injection, schedule: Q01DX011 (ip), vehicle: saline, higher = larger tumour); 84 % of control (endpoint: mean tumor weight (est.), dose: 110.0 mg/kg/injection, schedule: Q01DX011 (ip), vehicle: saline, higher = larger tumour); 79 % of control (endpoint: mean tumor weight (est.), dose: 220.0 mg/kg/injection, schedule: Q01DX011 (ip), vehicle: saline, higher = larger tumour); 103 % of control (endpoint: median survival time, dose: 27.5 mg/kg/injection, schedule: Q01DX011 (ip), vehicle: saline, higher = longer survival); 96 % of control (endpoint: median survival time, dose: 55.0 mg/kg/injection, schedule: Q01DX011 (ip), vehicle: saline, higher = longer survival). Also, the T/C reads like this: (endpoint: median survival time, dose: 110.0 mg/kg/injection, schedule: Q01DX011 (ip), vehicle: saline, higher = longer survival) 98 % of control; (endpoint: median survival time, dose: 220.0 mg/kg/injection, schedule: Q01DX011 (ip), vehicle: saline, higher = longer survival) 121 % of control.

For `Clc1ccc2nc(CBr)cnc2c1`, the T/C is 64 % of control under setting [1]; 77 % of control under setting [2]; 81 % of control under setting [3]; 105 % of control under setting [4]; 105 % of control under setting [5]; 103 % of control under setting [6].

Take `O=[N+]([O-])O.[Ga]`: the T/C was 101 % of control (endpoint: mean tumor weight, dose: 3.12 mg/kg/injection, schedule: Q01DX011 (ip), vehicle: saline, higher = larger tumour); 104 % of control (endpoint: mean tumor weight, dose: 6.25 mg/kg/injection, schedule: Q01DX011 (ip), vehicle: saline, higher = larger tumour); 85 % of control (endpoint: mean tumor weight, dose: 12.5 mg/kg/injection, schedule: Q01DX011 (ip), vehicle: saline, higher = larger tumour); 84 % of control (endpoint: mean tumor weight, dose: 25.0 mg/kg/injection, schedule: Q01DX011 (ip), vehicle: saline, higher = larger tumour); 102 % of control (endpoint: median survival time, dose: 3.12 mg/kg/injection, schedule: Q01DX011 (ip), vehicle: saline, higher = longer survival); 97 % of control (endpoint: median survival time, dose: 6.25 mg/kg/injection, schedule: Q01DX011 (ip), vehicle: saline, higher = longer survival). For the same molecule, the T/C runs as follows: (endpoint: median survival time, dose: 12.5 mg/kg/injection, schedule: Q01DX011 (ip), vehicle: saline, higher = longer survival) 106 % of control; (endpoint: median survival time, dose: 25.0 mg/kg/injection, schedule: Q01DX011 (ip), vehicle: saline, higher = longer survival) 93 % of control.

Turning to `CCCCc1ccc(NC(=O)N(CCCl)N=O)cc1`, the T/C (endpoint: median survival time, dose: 3.0 mg/kg/injection, schedule: Q07DX003 (ip), vehicle: Klucel (hydroxypropylcellulose) (HPC), higher = longer survival) is 112 % of control; the T/C (endpoint: median survival time, dose: 5.0 mg/kg/injection, schedule: Q07DX003 (ip), vehicle: Klucel (hydroxypropylcellulose) (HPC), higher = longer survival) is 106 % of control; the T/C (endpoint: median survival time, dose: 14.0 mg/kg/injection, schedule: Q07DX003 (ip), vehicle: Klucel (hydroxypropylcellulose) (HPC), higher = longer survival) is 110 % of control; the T/C (endpoint: median survival time, dose: 23.0 mg/kg/injection, schedule: Q07DX003 (ip), vehicle: Klucel (hydroxypropylcellulose) (HPC), higher = longer survival) was 87 % of control.

As for `CCC[CH2][Sn](=[S])[CH2]CCC`, the T/C by setting is: under setting [1], 103 % of control; under setting [2], 77 % of control; under setting [3], 55 % of control; under setting [4], 102 % of control; under setting [5], 116 % of control; under setting [6], 112 % of control.

As to `CC(C)NCC(O)COc1cccc2ccccc12` (configuration not stated), the T/C runs as follows: (endpoint: median survival time, dose: 8.0 mg/kg/injection, schedule: Q01DX009 (ip), vehicle: Klucel (hydroxypropylcellulose) (HPC), higher = longer survival) 121 % of control; (endpoint: median survival time, dose: 16.0 mg/kg/injection, schedule: Q01DX009 (ip), vehicle: Klucel (hydroxypropylcellulose) (HPC), higher = longer survival) 121 % of control; (endpoint: median survival time, dose: 32.0 mg/kg/injection, schedule: Q01DX009 (ip), vehicle: Klucel (hydroxypropylcellulose) (HPC), higher = longer survival) 90 % of control; (endpoint: median survival time, dose: 64.0 mg/kg/injection, schedule: Q01DX009 (ip), vehicle: Klucel (hydroxypropylcellulose) (HPC), higher = longer survival) 110 % of control.

`CC(C)S(=O)(=O)/C(Cl)=C(/Cl)C(Cl)=C(Cl)Cl`: the T/C is 111 % of control (endpoint: mean tumor weight, dose: 25.0 mg/kg/injection, schedule: Q01DX011 (ip), vehicle: sodium bicarbonate, higher = larger tumour); 117 % of control (endpoint: mean tumor weight, dose: 50.0 mg/kg/injection, schedule: Q01DX011 (ip), vehicle: sodium bicarbonate, higher = larger tumour); 100 % of control (endpoint: mean tumor weight, dose: 100.0 mg/kg/injection, schedule: Q01DX011 (ip), vehicle: sodium bicarbonate, higher = larger tumour); 87 % of control (endpoint: median survival time, dose: 50.0 mg/kg/injection, schedule: Q01DX011 (ip), vehicle: sodium bicarbonate, higher = longer survival).

For `CCCCCCCCCCCCCCCCCC[n+]1cccc(C(=O)N2CCOCC2)c1`, the T/C by setting is: (endpoint: mean tumor weight (est.), dose: 2.0 mg/kg/injection, schedule: Q01DX011 (ip), vehicle: saline, higher = larger tumour) 82 % of control; (endpoint: mean tumor weight (est.), dose: 4.0 mg/kg/injection, schedule: Q01DX011 (ip), vehicle: saline, higher = larger tumour) 83 % of control; (endpoint: mean tumor weight (est.), dose: 8.0 mg/kg/injection, schedule: Q01DX011 (ip), vehicle: saline, higher = larger tumour) 71 % of control; (endpoint: mean tumor weight (est.), dose: 16.0 mg/kg/injection, schedule: Q01DX011 (ip), vehicle: saline, higher = larger tumour) 64 % of control; (endpoint: median survival time, dose: 2.0 mg/kg/injection, schedule: Q01DX011 (ip), vehicle: saline, higher = longer survival) 101 % of control; (endpoint: median survival time, dose: 4.0 mg/kg/injection, schedule: Q01DX011 (ip), vehicle: saline, higher = longer survival) 103 % of control. In addition, the T/C reads like this: (endpoint: median survival time, dose: 8.0 mg/kg/injection, schedule: Q01DX011 (ip), vehicle: saline, higher = longer survival) 105 % of control; (endpoint: median survival time, dose: 16.0 mg/kg/injection, schedule: Q01DX011 (ip), vehicle: saline, higher = longer survival) 94 % of control.
